The results in this text go back to patent US9018213B2, “Alicyclic[c] benzopyrone derivatives and uses thereof” (Huazhong University of Science & Technology, priority 2011, dated 2015).

Molecules are shown by their SMILES.

Series [1] addresses 5HT1A receptor (Rattus norvegicus (Rat), UniProt P19327). The series is described as follows: 5HT1A receptor binding assay (3H-8-OH-DPAT). As to conditions: test compound final concentration 10^-5 M. On the procedure: Preparation of 5HT1A Membrane
Incubation at 37° C. was conducted for 10 min, the weight of the tubes were adjusted using a balance after incubation. […] Centrifugation was conducted and repeated 3 times.
Materials for the Receptor Binding Assay

In series [2] the target is 5HT2A receptor (Rattus norvegicus (Rat), UniProt P14842). Nature of the series: 5HT2A receptor binding assay ([3H]-Ketanserin). Conditions: read-out: 5HT2A inhibition %.
Chain of 5HT2A receptor (P14842 whole entry): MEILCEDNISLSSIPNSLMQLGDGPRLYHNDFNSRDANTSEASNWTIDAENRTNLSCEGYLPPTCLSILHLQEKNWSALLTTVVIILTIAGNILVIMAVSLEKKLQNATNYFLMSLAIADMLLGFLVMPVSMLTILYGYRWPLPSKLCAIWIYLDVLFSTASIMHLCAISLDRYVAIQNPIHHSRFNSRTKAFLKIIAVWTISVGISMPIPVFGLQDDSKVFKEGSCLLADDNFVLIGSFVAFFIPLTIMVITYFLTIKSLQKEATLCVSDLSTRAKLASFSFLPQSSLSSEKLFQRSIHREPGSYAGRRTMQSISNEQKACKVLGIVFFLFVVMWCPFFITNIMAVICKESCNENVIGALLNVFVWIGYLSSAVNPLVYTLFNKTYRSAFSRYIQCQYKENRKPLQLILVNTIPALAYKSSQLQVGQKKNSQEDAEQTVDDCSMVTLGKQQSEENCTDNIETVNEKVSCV
The target in series [3] is D2 receptor (Rattus norvegicus (Rat), UniProt P61169). Nature of the series: D2 receptor inhibition binding assay (3H-Spiperone). Conditions: read-out: D2 inhibition %.
Chain of D2 receptor (P61169 whole entry): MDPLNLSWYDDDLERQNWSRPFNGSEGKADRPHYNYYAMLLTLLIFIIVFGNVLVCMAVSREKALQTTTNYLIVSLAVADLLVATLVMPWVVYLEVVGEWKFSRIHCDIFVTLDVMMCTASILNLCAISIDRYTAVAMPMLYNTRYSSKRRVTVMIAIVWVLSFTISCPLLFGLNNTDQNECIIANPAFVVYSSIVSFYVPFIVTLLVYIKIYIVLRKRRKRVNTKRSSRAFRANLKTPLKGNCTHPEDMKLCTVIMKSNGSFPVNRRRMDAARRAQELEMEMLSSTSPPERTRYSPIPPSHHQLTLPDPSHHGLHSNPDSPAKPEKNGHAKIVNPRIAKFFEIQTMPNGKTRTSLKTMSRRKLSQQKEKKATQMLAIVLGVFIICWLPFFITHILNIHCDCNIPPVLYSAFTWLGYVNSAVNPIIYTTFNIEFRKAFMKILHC
Experimental: Rats were sacrificed by cervical dislocation on ice. Cerebral cortex was rapidly taken, and 2 cerebral cortexes were combined into a centrifuge tube, to which 3 ml of buffer (0.05 M Tris-HCl buffer, containing NaCl 120 mM, KCl 5 mM, MgCl2 1 mM, CaCl2 1 mM) was added, homogenization was conducted for 3-4 s at level 4 for four times, and then 5 ml of buffer was then added. The weight of the homogenized tubes were adjusted using a balance, and centrifugation was conducted at 12000 r, 4° C. for 20 min. The supernatant was discarded, and 3 ml of B solution was added. Vortex mixer was used for blending, and then 5 ml of B solution was added. Centrifugation was conducted and repeated 3 times. After the centrifugations, the supernatant was discarded, and the pellets were stored at −80° C. for future use.
Beckman LS-6500 Multi-function Liquid Scintillation Counter was used.
(1) The prepared membrane was first applied with appropriate amount of homogenized liquid, and homogenizer was used for evenly dispersing. 15 tubes were mixed into a 100 ml container, and appropriate amount of homogenized liquid was added to give 50 ml of membrane suspension, which was reserved for future use.
(2) 100 μL of membrane preparation and 100 μL of buffer were added into each reaction tube.
(3) 100 μL of homogenized liquid was added into the total binding tube (TB), 100 μL of Butaclamol (final concentration 10^−5 M) was added into the non-specific binding tube (NB), and 100 μL of the test compound (final concentration 10^−5 M) was added into the specific binding tube (SB) for each compound.
(5) Each of the reaction tubes was incubated at 37° C. for 20 min. After the reaction was completed, the bound ligands were rapidly filtered under reduced pressure, and the ice-chilled assay buffer was used for adequate washing. The filter was taken out and put into a 3 ml scintillation vial, and 2 ml of toluene scintillation solution was added and blended.
(6) The scintillation vials were put into Liquid Scintillation Counter for counting. Inhibitory rate (I %)=(Total binding tube cpm−compound cpm)/(Total binding tube cpm−non-specific binding tube cpm)×100%
Each assay for the compounds was conducted in duplicate.
Series [4] relates to KM mice. Nature of the series: Apomorphine induced clambering assay of mice. It counts as in vivo. Conditions: for Scoring (value), apomorphine induced clambering: x ± s, n = 10; for ED50: Mus musculus, read-out: apomorphine induced clambering ED50. On the procedure:
Apomorphine Induced Clambering Assay of Mice
Healthy KM mice (male, with body weight of 18-22 g) were provided by Qinglongshan Animal Cultivation Center, Nanjing.
Apomorphine provided by Sigma Company was dissolved in 0.9% NaCl (containing 0.1% vitamin C) before use, and was freshly formulated before use.
Vitamin C, F20061113, was provided by Sinopharm Chemical Reagent Co. Ltd.
Sodium chloride injection, H32026305, was provided by Xuzhou No. 5 Pharmaceutical Factory Co. Ltd.
Instruments: self-made clambering cage, chronograph.
Procedures: apomorphine induced clambering assay of mice
After 5 min of adaptation, the behaviors of the mice at 10-11, 20-21, and 30-31 min after the injection of apomorphine were observed and scored. Scoring criteria: 4 paws on the floor was scored as 0; 2 forepaws on the cage was scored as 1; and 4 paws on the cage was scored as 2.

The subject of series [5] is mice of Kunming breed. Nature of the series: MK-801 induced high activity. Format: in vivo. Conditions: po, mice. On the procedure:
Healthy mice of Kunming breed (with half male and half female, (20±2) g) were provided by Qinglongshan Animal Cultivation Center, Nanjing.
Ascorbic acid was provided by Sinopharm Chemical Reagent Co. Ltd.
Tween 80, with the concentration of 10%.
Subsequently, the spontaneous activities of the mice of each group in 90 min were measured.

The nature of series [6]: in vivo. As to conditions: both sexes, KM, mouse, in vivo, po. On the procedure:
Limit Test of Sequential Assay
KM mice (half male and half female) were randomly divided into several groups (with 2-5 mice in each group), which were respectively the 2000 mg/kg groups for each compound, and the solvent group. 0.2 ml/10 g were administered intragastrically. The death of the animals in 3 days were observed. (In the case 3 or more animals survived in 3 days without notable abnormity in their life states, the observation was continued until the assay was completed in 7 days. In the case 3 or more animals died in 3 days, the median lethal dose method was used to determine the LD50).
Pre-Assay for the Median Lethal Dose Method
0.2 ml/10 g were administered intragastrically, and the death of the animals in 1-3 days were observed.

Series [7] can be described thus: in vivo. Conditions: both, Kunming (KM), mouse, po. On the procedure:
Healthy mice of Kunming breed (with half male and half female, (22±2) g) were provided by Qinglongshan Animal Cultivation Center, Nanjing.
The durations for the mice to maintain the posture with the two forepaws on the bars were recorded, and 30 s of spasticity without moving was considered as the positive response. In the case the forepaws of the mice were not put down persistently, the observation was terminated at 60 s. The numbers of animals with positive response in each of the compound dosage groups were counted.

Chain of 5HT1A receptor (P19327 whole entry): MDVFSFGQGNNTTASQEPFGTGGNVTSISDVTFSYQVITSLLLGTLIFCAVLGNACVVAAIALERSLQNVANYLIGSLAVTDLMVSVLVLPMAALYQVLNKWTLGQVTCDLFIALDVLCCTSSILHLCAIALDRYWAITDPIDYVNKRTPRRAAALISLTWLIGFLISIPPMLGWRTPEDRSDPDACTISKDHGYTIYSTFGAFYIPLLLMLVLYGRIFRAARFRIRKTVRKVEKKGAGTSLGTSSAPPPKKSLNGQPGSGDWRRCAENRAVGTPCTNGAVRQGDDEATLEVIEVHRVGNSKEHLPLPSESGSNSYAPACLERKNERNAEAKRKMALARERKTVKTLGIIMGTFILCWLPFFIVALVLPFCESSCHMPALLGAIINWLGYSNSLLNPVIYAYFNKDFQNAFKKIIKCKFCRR

What is called inhibition is the change of the read-out against control, counted positive when it falls. For the compound `O=c1oc2cc(OCCCCN3CCC(c4noc5cc(F)ccc45)CC3)ccc2c2c1CCCC2` [Compound 18, 3-{4-[4-(3-(6-fluoro-benzisoxazole)-1-piperidyl)-butoxy]}-7,8,9,10-tetrahydrobenzo[c]benzopyran-6-one], the inhibition at 10 µM turned out to be 46.6% in series [1], 114% in series [2] and 80.6% in series [3].
Broadly, the LD50 is the dose at which mortality reaches 50%. Lower therefore signals a more toxic substance. A word on the ED50: it is the midpoint of the dose-response relation. On to `OCCOCCN1CCN(C2=Nc3ccccc3Sc3ccccc32)CC1` [quetiapine], for which the “Scoring (value), apomorphine induced clambering” value (“Scoring (value)” for short) in series [4] (dosage 3 mg/kg) is listed as 4.00 ± 2.05; in series [4] (dosage 10 mg/kg) it was 3.00 ± 1.63; in series [4] (dosage 30 mg/kg) it was 4.00 ± 2.31; in series [4] (dosage 100 mg/kg), 2.60 ± 2.55; in series [4] (dosage 300 mg/kg) it was 0.50 ± 1.07. Further, in series [4] (po, mice), the “apomorphine induced clambering ED50” value is listed as 2.02 mg/kg. Also, the “MK-801 induced high activity ED50” value in series [5] was determined as 10.1 mg/kg. In addition, in series [6], the LD50 came to 800 mg/kg. For the same compound, the ED50 in series [7] is 800 mg/kg.
`COc1ccccc1N1CCN(CCCCOc2ccc3c4c(c(=O)oc3c2Cl)CCC4)CC1` [Compound 13, 7-{4-[4-(2-methoxyphenyl)piperazin-1-yl]-butoxy}-6-chloro-2,3-dihydro-1H-cyclopenteno[c]benzopyran-4-one]: the inhibition at 10 µM in series [1] is 106%; in series [2] it was 105%; in series [3] it was 59.2%.
On the same counts, the results for `O=c1oc2cc(OCCCCN3CCC(c4noc5cc(F)ccc45)CC3)c(Cl)cc2c2c1CCC2` [Compound 16, 7-{4-[4-(3-(6-fluoro-benzisoxazole)-1-piperidyl)-butoxy]}-8-chloro-2,3-dihydro-1H-cyclopenteno[c]benzopyran-4-one] are 55.3%, 88.4% and 51.5%.
As for `Cc1cc2c(s1)Nc1ccccc1N=C2N1CCN(C)CC1` [olanzapine], the ED50 in series [4] (po) worked out at 0.11 mg/kg. Also, the “Scoring (value)” value in series [4] (dosage 0.1 mg/kg) stood at 5.00 ± 1.25; in series [4] (dosage 0.3 mg/kg) it was 2.10 ± 1.10; in series [4] (dosage 1 mg/kg) it was 1.30 ± 1.25; in series [4] (dosage 3 mg/kg), 0.30 ± 0.48.
Turning to `COc1ccccc1N1CCN(CCCOc2ccc3c4c(c(=O)oc3c2)CCC4)CC1` [Compound 4, 7-{3-[4-(2-methoxyphenyl)piperazin-1-yl]-propoxy}-2,3-dihydro-1H-cyclopenteno[c]benzopyran-4-one], the inhibition at 10 µM in series [1] is 116%; in series [2], 112%; in series [3] it was 50.2%.
As for `COc1ccccc1N1CCN(CCCCOc2ccc3c4c(c(=O)oc3c2C)CCCC4)CC1` [Compound 20, 3-{4-[4-(2-methoxyphenyl)piperazin-1-yl]-butoxy}-4-methyl-7,8,9,10-tetrahydrobenzo[c]benzopyran-6-one], the inhibition at 10 µM in series [1] was determined as 100%; in series [2] it was 90.7%; in series [3], 66.4%.
As for `COc1ccc(N2CCN(CCCCOc3ccc4c5c(c(=O)oc4c3)CCC5)CC2)cc1` [Compound 8, 7-{4-[4-(4-methoxyphenyl)piperazin-1-yl]-butoxy}-2,3-dihydro-1H-cyclopenteno[c]benzopyran-4-one], the inhibition at 10 µM was 62.8% in series [1], 23.4% in series [2] and 26.4% in series [3].
The corresponding values for `O=c1oc2cc(OCCCN3CCN(c4cccc(Cl)c4Cl)CC3)ccc2c2c1CCC2` [Compound 2, 7-{3-[4-(2,3-dichlorophenyl)piperazin-1-yl]-propoxy}-2,3-dihydro-1H-cyclopenteno[c]benzopyran-4-one] are 65.8%, 14.3% and 11.5%.
In the case of `Cc1cccc(N2CCN(CCCOc3ccc4c5c(c(=O)oc4c3)CCC5)CC2)c1C` [Compound 1, 7-{3-[4-(2,3-dimethylphenyl)piperazin-1-yl]-propoxy}-2,3-dihydro-1H-cyclopenteno[c]benzopyran-4-one], the inhibition at 10 µM in series [1] is 103%; in series [2], 82.9%; in series [3], 3.3%.
The corresponding values for `Cc1c(OCCCCN2CCN(c3nsc4ccccc34)CC2)ccc2c3c(c(=O)oc12)CCC3` [Compound 12, 7-{4-[4-(3-(1,2-benzisothiazole)-1-piperazinyl)-butoxy]}-6-methyl-2,3-dihydro-1H-cyclopenteno[c]benzopyran-4-one] are 104%, 107% and 61.2%.
On the same counts, the results for `COc1ccccc1N1CCN(CCCOc2ccc3c4c(c(=O)oc3c2C)CCC4)CC1` [Compound 6, 7-{3-[4-(2-methoxyphenyl)piperazin-1-yl]-propoxy}-6-methyl-2,3-dihydro-1H-cyclopenteno[c]benzopyran-4-one] are 95.5%, 75.4% and 4.7%.
The corresponding values for `COc1ccccc1N1CCN(CCCCOc2ccc3c4c(c(=O)oc3c2C)CCC4)CC1` [Compound 11, 7-{4-[4-(2-methoxyphenyl)piperazin-1-yl]-butoxy}-6-methyl-2,3-dihydro-1H-cyclopenteno[c]benzopyran-4-one] are 106%, 105% and 59.2%.
Take `O=c1oc2cc(OCCCCN3CCN(c4ccc(F)cc4)CC3)ccc2c2c1CCC2` [Compound 9, 7-{4-[4-(4-fluorophenyl)piperazin-1-yl]-butoxy}-2,3-dihydro-1H-cyclopenteno[c]benzopyran-4-one]: the inhibition at 10 µM is 104% in series [1], 119% in series [2] and 15.2% in series [3].
As to `O=c1oc2cc(OCCCCN3CCC(c4noc5cc(F)ccc45)CC3)ccc2c2c1CCC2` [Compound 10, 7-{4-[4-(3-(6-fluoro-benzisoxazole)-1-piperidyl)-butoxy]}-2,3-dihydro-1H-cyclopenteno[c]benzopyran-4-one], the values for the inhibition at 10 µM in series [1], in series [2] and in series [3] were 42.5%, 68.4% and 5.7%, respectively.
In the case of `COc1ccccc1N1CCN(CCCCOc2cc3oc(=O)c4c(c3cc2Cl)CCC4)CC1` [Compound 17, 7-{4-[4-(2-methoxyphenyl)piperazin-1-yl-butoxy]}-8-chloro-2,3-dihydro-1H-cyclopenteno[c]benzopyran-4-one], the inhibition at 10 µM in series [1] stood at 115%; in series [2], 104%; in series [3] it was 15.4%.
As for `O=c1oc2cc(OCCCN3CCN(c4cccc(C(F)(F)F)c4)CC3)ccc2c2c1CCC2` [Compound 3, 7-{3-[4-(3-trifluoromethylphenyl)piperazin-1-yl]-propoxy}-2,3-dihydro-1H-cyclopenteno[c]benzopyran-4-one], the inhibition at 10 µM was determined as 104% in series [1], 62.2% in series [2] and 17.2% in series [3].
Consider `Cc1nc2n(c(=O)c1CCN1CCC(c3noc4cc(F)ccc34)CC1)CCCC2` [risperidone], for which, in series [4] (po), the ED50 came to 0.015 mg/kg. Also, the “effect on apomorphine induced clambering symptoms (in words)” value in series [4] (compared to the model group) is “effectively improve”. Moreover, the “Scoring (value)” value in series [4] (dosage 0.01 mg/kg) was 5.20 ± 1.87; in series [4] (dosage 0.03 mg/kg), 2.70 ± 1.77; in series [4] (dosage 0.1 mg/kg) it was 1.80 ± 1.32; in series [4] (dosage 0.3 mg/kg) it was 0.20 ± 0.63.
